Data taken from paper PMC8880588, “In-Silico Screening of Novel Synthesized Thienopyrimidines Targeting Fms Related Receptor Tyrosine Kinase-3 and Their In-Vitro Biological Evaluation” (Pharmaceuticals, 2022).

Assays:
HT-29 cells = experiment: Preliminary antiproliferative assessment (MTT) at 10 and 100 μM; type: cell-based, human; conditions: for growth inhibitory activities against HT-29 cells (preliminary assay): 10 and 100 μM, 72 h; for cytotoxic profile: result in words
Protocol: All synthesized compounds were subjected to preliminary antiproliferative assessment that was performed on HT-29 cells using concentrations 10 and 100 μM of synthesized compounds for 72 h and the percentage of cell viability was then calculated. […] Thus, all five compounds were further studied by a detailed dose–response relationship against three different cancerous cell lines HT-29, Hep-G2 and MCF-7.
(§1) Three cancer cell lines were used in the antiproliferative activities experiments, namely, breast cancer cell line (MCF-7) and human hepatoma cell line (HepG-2), and Colorectal cell line (HT-29). The source of cell lines is the health sciences research center-core lab- at princess Nou-rah bint Abdulrahman university. All cell lines were maintained in their optimum media (RPMI-1640 or DMEM) supplemented with 10% fetal bovine serum, 100 U/mL penicillin, and 100 μg/mL streptomycin and incubated in a humidified atmosphere at 37 °C with 5% CO2.
(§2) The MTT assay was used to evaluate the anti-proliferative effect of the synthesized compounds against three human cancer cell lines hepatocellular carcinoma (HepG-2), breast cancer (MCF-7) and Colorectal carcinoma (HT-29). For the preliminary screening, HT-29 cells were seeded in 96-well plates (Thermo Scientific, Waltham, MA, USA)(10^3 cells/well) and incubated for 24 h before the treatment. Then, cells were treated with two concentrations (10 and 100 µM) of the tested compounds for 72 h. After the exposure, MTT assay protocol was performed as described. After evaluation of the preliminary anticancer activity, the promising synthesized compounds (8, 9a, 9b, 10a, and 11) were selected and examined against three cell lines (HepG-2, MCF-7, and HT-29). Cells were exposed to serial concentration ([…]) of the selected compounds and dose–response curves were determined to calculate their IC50 values.

HT-29 = experiment: MTT dose-response anti-proliferative assay, HT-29; type: cell-based; conditions: Homo sapiens; HT-29, MTT
Excerpt: (§3) Doxorubicin was used as a positive reference for the comparison of anticancer activities. The results are tabulated as IC50 value in the μM range, Table 1.
as §1, §2

HepG-2 = experiment: MTT dose-response anti-proliferative assay, HepG-2; type: cell-based; conditions: Homo sapiens, HepG2; HepG-2, MTT
Excerpt: as §3, §1, §2

MCF-7 = experiment: MTT dose-response anti-proliferative assay, MCF-7; type: cell-based, human
Excerpt: as §3, §1, §2

[1] = tested on: normal colon epithelial cells (CCD 841 CoN); experiment: Selectivity assay (MTT) on non-cancerous cells; type: cell-based; conditions: for IC50: Homo sapiens, CCD 841 CoN, 72 h, MTT, read-out: IC50 of Non-Cancer Cells CCD 841; for Selectivity Index (SI) (IC50 of CCD 841/IC50 of HT29): ratio normal CCD 841 / cancer HT-29, 72 h
Protocol: In an attempt to evaluate the anticancer activity of the compounds, selectivity assay was performed and compounds’ selectivity to malignant cells was determined, reflected by their selectivity index. The selectivity index (SI) was calculated by the ratio of the IC50 value of the selected compounds on normal colon epithelial cells (CCD 841 CoN) to the IC50 value of the compounds on cancer cells (HT-29). […] However, based on the designed strategy, this high selectivity towards cancer cells may be attributed to their ability to target oncogenic kinases.
Cells were plated in 96-well plates (10^3 cells/well), and after 24 h, the compounds in concentrations (0.1 to 100 μM) were incubated for 72 h. MTT procedure was then performed, the ratio of IC50 values of the compounds on non-cancerous cells (CCD 841 CoN) to the IC50 values of the compounds on cancer cells (HT-29) was determined as reported, [23, 24] using the following equation, SI = IC50 of normal cells/IC50 of cancer cells.

[2] = tested on: protein kinases extracted from HT-29 cell line; experiment: Kinase inhibition assessment, single dose, ADP-Glo assay; type: biochemical, human; conditions: 20 μM single dose, total intracellular kinases from HT-29, 45 min
Protocol: Inhibitory activity against kinases of the selected compounds was examined using homogeneous protein kinases extracted from HT-29 cell line. The screening assay was performed in a single dose concentration (20 μM) by using ADP-Glo assay (Promega, Madison, WI, USA).
Briefly, protein kinases were added into a 96-well plate followed by addition of the synthesized compounds at the tested dose (20 μM). After 45 min of exposure, kinase activity was assessed using a luminescent luciferase/luciferin reaction. Luminescence quantification was measured by using a Varioskan™ LUX multimode microplate reader (Thermo Scientific, Waltham, MA, USA). Kinase inhibition effect of tested compounds was expressed as the percentage of remaining kinase activity relative to vehicle kinase reaction.

FLT3 = molecular target: T1, FLT3 (Homo sapiens, UniProt P36888); experiment: In-vitro FLT3 kinase enzyme inhibition assay (FLT3 Kinase Assay Kit); type: biochemical; conditions: FLT3 1.5 ng/µL, 45 min, mean ± SD, n = 3; read-out: FLT3 kinase inhibitory activity IC50
T1 construct: purchased BD Biosciences, San Diego, CA, USA
T1 sequence (P36888 27-993): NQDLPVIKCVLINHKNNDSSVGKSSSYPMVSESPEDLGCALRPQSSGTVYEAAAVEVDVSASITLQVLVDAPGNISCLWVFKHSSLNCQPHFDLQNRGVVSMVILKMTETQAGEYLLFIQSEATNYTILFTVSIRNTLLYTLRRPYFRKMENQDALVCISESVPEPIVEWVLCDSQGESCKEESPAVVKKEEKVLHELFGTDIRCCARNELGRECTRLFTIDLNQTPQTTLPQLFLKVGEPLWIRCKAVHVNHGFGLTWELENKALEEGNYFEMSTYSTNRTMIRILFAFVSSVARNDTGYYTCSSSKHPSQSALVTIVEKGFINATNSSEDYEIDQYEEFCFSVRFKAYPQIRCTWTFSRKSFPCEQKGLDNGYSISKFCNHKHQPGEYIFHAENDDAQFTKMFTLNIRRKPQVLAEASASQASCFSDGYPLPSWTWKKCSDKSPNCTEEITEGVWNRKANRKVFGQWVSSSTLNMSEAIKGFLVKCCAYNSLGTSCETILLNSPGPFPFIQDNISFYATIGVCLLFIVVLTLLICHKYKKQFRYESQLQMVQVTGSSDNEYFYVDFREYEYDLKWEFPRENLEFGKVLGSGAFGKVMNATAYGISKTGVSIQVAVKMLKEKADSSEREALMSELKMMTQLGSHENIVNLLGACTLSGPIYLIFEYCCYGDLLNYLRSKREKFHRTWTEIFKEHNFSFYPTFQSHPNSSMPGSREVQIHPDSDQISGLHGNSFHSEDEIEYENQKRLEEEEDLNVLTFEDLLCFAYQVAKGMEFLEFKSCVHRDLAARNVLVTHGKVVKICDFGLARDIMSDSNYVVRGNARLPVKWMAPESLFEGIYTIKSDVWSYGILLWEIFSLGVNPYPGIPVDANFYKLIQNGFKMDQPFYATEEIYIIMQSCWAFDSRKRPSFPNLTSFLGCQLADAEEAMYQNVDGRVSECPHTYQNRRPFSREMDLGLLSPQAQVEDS
Protocol: FLT3 Kinase Assay Kit (BD Biosciences, San Diego, CA, USA) was used to determine the inhibitory selectivity of the selected compounds towards the FLT3 enzyme. briefly, serial dilution of the selected compounds was incubated with FLT3 (1.5 ng/µL) for 45 min in a kinase reaction buffer. The FLT3 enzyme reaction was halted and measured by quantifying the amount of ADP produced during the enzyme reaction. Luminescence values were measured by a Varioskan™ LUX multimode microplate reader (Thermo Scientific, Waltham, MA, USA). IC50 was calculated with nonlinear regression compared with untreated reaction using Prism version 8.4.3 (GraphPad).

| Structure (SMILES) | melting point [°C] | IC50 (HT-29) [µM] | IC50 (MCF-7; Homo sapiens, MCF7, MCF-7, MTT) [µM] | IC50 (FLT3) [µM] | IC50 (MCF-7; MCF-7, MTT) [µM] | growth inhibition at concentration 100 µM (HT-29 cells; 100 µM, preliminary assay) | growth inhibitory activities against HT-29 cells (preliminary assay) (HT-29 cells) | IC50 (HepG-2) [µM] | IC50 [1] [µM] | Selectivity Index (SI) (IC50 of CCD 841/IC50 of HT29) [1] | kinase inhibition [2] [%] | cytotoxic profile (HT-29 cells) |
| --- | --- | --- | --- | --- | --- | --- | --- | --- | --- | --- | --- | --- |
| CC1=CC(=O)N(n2c(C)nc3sc4c(c3c2=O)CCCC4)C1=O [Compound 4, 3-Methyl-1-(2-methyl-4-oxo-5,6,7,8-tetrahydrobenzo[4,5]thieno[2,3-d]pyrimidin-3(4H)-yl)-1H-pyrrole-2,5-dione] | 125 to 127 |  |  |  |  | weak growth inhibition |  |  |  |  |  |  |
| Cc1nc2sc3c(c2c(=O)n1NCC(=O)Nc1cc(C(C)(C)C)no1)CCCC3 [Compound 7a, 2-(2-Methyl-4-oxo-5,6,7,8-tetrahydrobenzo[4,5]thieno[2,3-d]pyrimidin-3(4H)-ylamino)-N-(3-tert-butylisoxazol-5-yl)acetamide] | 120 to 122 |  |  |  |  |  |  |  |  |  |  |  |
| Cc1nc2sc3c(c2c(=O)n1NC(=S)Nc1ccccc1)CCCC3 [Compound 5, 1-(2-Methyl-4-oxo-5,6,7,8-tetrahydrobenzo[4,5]thieno[2,3-d]pyrimidin-3(4H)-yl)-3-phenylthiourea] | 138 to 140 |  |  |  |  |  |  |  |  |  |  |  |
| Cc1nc2sc3c(c2c(=O)n1NC(=O)CCl)CCCC3 [Compound 8, 2-Chloro-N-(2-methyl-4-oxo-5,6,7,8-tetrahydrobenzo[4,5]thieno[2,3-d]pyrimidin-3(4H)-yl)acetamide] |  | 2 ± 0.62 | 11 ± 0.8 |  |  |  | moderate to significant | 13.5 ± 2.7 | 151 ± 20.2 | 75.5 | 49.6 |  |
| Nn1c(Nc2ccccc2)nc2sc3c(c2c1=O)CCCC3 [Compound 12, 3-Amino-2-phenylamino-5,6,7,8-tetrahydrobenzo[4,5]thieno[2,3-d]pyrimidin-4(3H)-one] | 198 to 200 |  |  | 27.2 ± 5.6 |  |  |  |  |  |  | 65.3 |  |
| CCOC(=O)c1c(NC(=S)Nc2ccccc2)sc2c1CCCC2 [Compound 11, Ethyl-2-(3-phenylthioureido)-5,6,7,8-tetrahydrobenzo[b]thiophene-3-carboxylate] | 170 to 172 | 1.78 ± 0.6 | 7.53 ± 0.07 | 40 ± 5.5 | 7.537 ± 0.07 |  | moderate to significant | 16.4 ± 5.7 | 178 ± 20.4 | 99.7 | 79.2 |  |
| Cc1nc2sc3c(c2c(=O)n1NCC(=O)Nc1cc(C(C)(C)C)on1)CCCC3 [Compound 7b, 2-(2-Methyl-4-oxo-5,6,7,8-tetrahydrobenzo[4,5]thieno[2,3-d]pyrimidin-3(4H)-ylamino)-N-(5-tert-butylisoxazol-3-yl)acetamide] | 128 to 130 |  |  |  |  |  |  |  |  |  |  |  |
| COc1cccc2c1C(=O)c1c(O)c3c(c(O)c1C2=O)C[C@@](O)(C(=O)CO)C[C@@H]3O[C@H]1C[C@H](N)[C@H](O)[C@H](C)O1 [Dox, Doxorubicin, reference compound] |  | 1.4 ± 1.16 | 8.43 ± 0.5 |  |  |  |  | 13.9 ± 2.2 |  |  |  |  |
| Cc1nc2sc3c(c2c(=O)n1N1C(=O)CN(c2ccccc2)C1=S)CCCC3 [Compound 6, 2-Methyl-3-(5-oxo-3-phenyl-2-thioxoimidazolidin-1-yl)-5,6,7,8-tetrahydrobenzo[4,5]thieno[2,3-d]pyrimidin-4(3H)-one] | 198 to 200 |  |  |  |  |  |  |  |  |  |  |  |

More lines, main results first:

| melting point [°C] | IC50 (HT-29) [µM] | IC50 (MCF-7; Homo sapiens, MCF7, MCF-7, MTT) [µM] | IC50 (FLT3) [µM] | IC50 (MCF-7; MCF-7, MTT) [µM] | Structure (SMILES) | growth inhibition at concentration 100 µM (HT-29 cells; 100 µM, preliminary assay) | growth inhibitory activities against HT-29 cells (preliminary assay) (HT-29 cells) | IC50 (HepG-2) [µM] | IC50 [1] [µM] | Selectivity Index (SI) (IC50 of CCD 841/IC50 of HT29) [1] | kinase inhibition [2] [%] | cytotoxic profile (HT-29 cells) |
| --- | --- | --- | --- | --- | --- | --- | --- | --- | --- | --- | --- | --- |
| 98 to 100 | 0.85 ± 0.16 | 16.3 ± 2.3 | 47.6 ± 9.3 |  | Cc1nc2sc3c(c2c(=O)n1NC(=O)CNc1cc(C(C)(C)C)on1)CCCC3 [Compound 9b, 2-(5-Tert-butylisoxazol-3-ylamino)-N-(2-methyl-4-oxo-5,6,7,8-tetrahydrobenzo[4,5]thieno[2,3-d]pyrimidin-3(4H)-yl)acetamide] |  | moderate to significant | 9.11 ± 0.3 | 17.2 ± 1.4 | 20.2 | 13.05 |  |
| 89 to 92 | 1.21 ± 0.34 | 7.2 ± 1.9 | 20.4 ± 2.8 |  | Cc1nc2sc3c(c2c(=O)n1NC(=O)CNc1cc(C(C)(C)C)no1)CCCC3 [Compound 9a, 2-(3-Tert-butylisoxazol-5-ylamino)-N-(2-methyl-4-oxo-5,6,7,8-tetrahydrobenzo[4,5]thieno[2,3-d]pyrimidin-3(4H)-yl)acetamide] |  | moderate to significant | 6.62 ± 0.7 | 11.3 ± 5.6 | 9.4 |  |  |
| 187 to 189 |  |  |  |  | Cc1nc2sc3c(c2c(=O)n1NC(=O)CN1CCN(C)CC1)CCCC3 [Compound 10b, N-(2-methyl-4-oxo-5,6,7,8-tetrahydrobenzo[4,5]thieno[2,3-d]pyrimidin-3(4H)-yl)-2-(4-methylpiperazin-1-yl)acetamide] |  |  |  |  |  |  | weak cytotoxic profile |
| 222 to 225 | 167 ± 8.15 | 105 ± 36.4 | 17.8 ± 3.8 |  | Cc1nc2sc3c(c2c(=O)n1NC(=O)CN1CCOCC1)CCCC3 [Compound 10a, N-(2-methyl-4-oxo-5,6,7,8-tetrahydrobenzo[4,5]thieno[2,3-d]pyrimidin-3(4H)-yl)-2-morpholinoacetamide] |  | moderate to significant | 188 ± 28.2 |  |  | 75.1 | weak cytotoxic profile |
